The text below walks through data of paper PMC9268102, “Design, Synthesis and Biological Evaluation of 1,3,5-Triazine Derivatives Targeting hA1 and hA3 Adenosine Receptor” (Molecules, 2022).

What is called Ki is a measure of affinity in units of concentration, obtained from inhibition or displacement. A word on the inhibition: it is the drop in the measured response relative to a control, in per cent.

Assay [1] addresses T1, hA3 AR (Homo sapiens, UniProt P0DMS8).
T1 sequence (P0DMS8 1-318): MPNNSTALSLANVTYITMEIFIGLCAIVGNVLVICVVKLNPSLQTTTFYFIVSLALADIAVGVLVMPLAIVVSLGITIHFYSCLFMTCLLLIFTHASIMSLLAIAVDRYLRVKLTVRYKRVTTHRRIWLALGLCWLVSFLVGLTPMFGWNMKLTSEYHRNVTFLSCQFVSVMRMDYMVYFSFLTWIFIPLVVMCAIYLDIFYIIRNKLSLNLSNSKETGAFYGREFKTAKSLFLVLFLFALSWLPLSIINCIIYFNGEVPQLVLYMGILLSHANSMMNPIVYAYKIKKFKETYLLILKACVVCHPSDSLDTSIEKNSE
On the set-up: expressed in transfected cells; host or cells: Hela-A3 cell line; method as in PMID 31280999, PMID 31780082, PMID 27531666. The settings on record: read-out: Ki at hA3AR; cited from earlier work.

Assay [2] deals with T2, hA1 AR (Homo sapiens, UniProt P30542).
T2 construct: host or cells: CHO-A1 (CHO cells expressing hA1 AR)
T2 sequence (P30542 1-326): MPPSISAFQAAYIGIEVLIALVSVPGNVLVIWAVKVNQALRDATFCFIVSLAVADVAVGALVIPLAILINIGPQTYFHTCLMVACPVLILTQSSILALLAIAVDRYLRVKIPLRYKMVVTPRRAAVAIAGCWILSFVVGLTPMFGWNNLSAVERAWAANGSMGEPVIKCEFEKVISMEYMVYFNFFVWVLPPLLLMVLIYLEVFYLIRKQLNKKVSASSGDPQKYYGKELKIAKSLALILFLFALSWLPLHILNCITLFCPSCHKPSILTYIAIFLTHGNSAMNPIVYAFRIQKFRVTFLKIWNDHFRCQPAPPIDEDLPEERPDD
Conditions: read-out: Ki at hA1AR; cited from earlier work.

The target in assay [3] is T3, hA2A AR (Homo sapiens, UniProt P29274).
T3 construct: expressed in transfected cells; host or cells: Hela-A2A cell line
T3 sequence (P29274 whole entry): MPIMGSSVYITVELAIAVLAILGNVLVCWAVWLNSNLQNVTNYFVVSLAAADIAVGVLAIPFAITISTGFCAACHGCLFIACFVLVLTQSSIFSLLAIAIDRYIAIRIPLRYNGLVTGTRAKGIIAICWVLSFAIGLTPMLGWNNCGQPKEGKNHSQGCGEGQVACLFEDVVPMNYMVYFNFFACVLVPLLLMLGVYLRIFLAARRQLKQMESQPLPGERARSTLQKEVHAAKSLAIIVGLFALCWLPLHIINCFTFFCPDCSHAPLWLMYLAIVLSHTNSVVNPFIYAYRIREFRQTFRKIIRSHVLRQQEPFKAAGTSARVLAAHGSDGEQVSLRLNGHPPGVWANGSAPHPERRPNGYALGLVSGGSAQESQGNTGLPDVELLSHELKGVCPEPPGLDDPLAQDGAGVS
The settings on record: cited from earlier work; for Ki: read-out: Ki at hA2AAR.

For assay [4], the target named is T1, hA3 AR. In words: Radioligand competition binding assay at hA3 AR. On the set-up: expressed in transfected cells; host or cells: Hela-A3 cell line. Conditions: 10 μM compound; [3H]NECA; read-out: Percentage Inhibition (%) at 10 μM, hA3 AR. How it is done: (§1) All the synthesized compounds were screened with radioligand binding assays at hARs. First, the percentage of inhibition was measured by treatment of each hAR subtype with 10 μM of each compound (Table 1).
(§2) hA1, hA2A, and hA3 AR competition binding experiments were carried out in a multiscreen GF/C 96-well plate (Millipore, Madrid, Spain) pretreated with binding buffer (Hepes 20 mM, NaCl 100 mM, MgCl2 10 mM, 2 U/mL adenosine deaminase, pH = 7.4 for hA1 AR; Tris-HCl 50 mM, EDTA 1 mM, MgCl2 10 mM, 2 U/mL adenosine deaminase, pH = 7.4 for hA2A AR; and Tris-HCl 50 mM, EDTA 1 mM, MgCl2 5 mM, 2 U/mL adenosine deaminase, pH = 7.4 for hA3 AR, respectively). In each well was incubated 5 µg of membranes from Euroscreen CHO-A1 cell line, 5µg of membranes from Hela-A2A cell line, or 30µg of membranes from Hela-A3 cell line and prepared in laboratory: 1 nM [^3H]-DPCPX (140 Ci/mmol, 1 mCi/Ml, Perkin Elmer NET974001MC) for hA1 AR; 1 nM [^3H]-ZM241385 (50 Ci/mmol, 1 mCi/mL, ARC-ITISA 0884) for hA2A AR; and 10 nM [^3H]-NECA (29.6 Ci/mmol, 1 mCi/mL, Perkin Elmer NET811250UC) for hA3 AR, respectively; and the compounds studied according to standard protocol. Non-specific binding was determined in the presence of R-PIA 10 µM (Sigma P4532) for hA1 AR; of NECA 50 µM (Sigma E2387) for hA2A AR; and of R-PIA 100 µM (Sigma P4532) for hA3 AR, respectively. The reaction mixture (Vt: 200 µL/well) was incubated at 25 °C for 60 min (hA1 AR), 30min (hA2A AR), or 180min (hA3 AR); whereafter it was filtered and washed four times (hA1 and hA2A AR) or six times (hA3 AR) with 250 μL wash buffer (Hepes 20 mM, NaCl 100 mM, MgCl2 10 mM pH = 7.4, for hA1 AR; Tris-HCl 50 mM, EDTA 1 mM, MgCl2 10 mM, pH = 7.4, for hA2A AR; and Tris-HCl 50mM pH = 7.4, for hA3 AR, respectively) before being measured in a microplate beta scintillation counter (MicrobetaTrilux, PerkinElmer, Madrid, Spain).

The target in a further assay is T4, hA2B AR (Homo sapiens, UniProt P29275).
T4 construct: host or cells: HEK-A2B (HEK-293T-A2B) cell line
T4 sequence (P29275 1-332): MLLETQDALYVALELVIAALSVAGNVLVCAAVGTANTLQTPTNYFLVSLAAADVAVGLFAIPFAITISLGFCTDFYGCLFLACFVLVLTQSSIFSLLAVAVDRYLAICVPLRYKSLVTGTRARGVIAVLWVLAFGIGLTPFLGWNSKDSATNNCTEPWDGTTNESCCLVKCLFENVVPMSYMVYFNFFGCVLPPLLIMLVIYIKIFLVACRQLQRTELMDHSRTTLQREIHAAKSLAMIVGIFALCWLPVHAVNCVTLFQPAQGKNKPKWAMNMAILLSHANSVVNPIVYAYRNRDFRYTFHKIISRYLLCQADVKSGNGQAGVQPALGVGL
In words: Radioligand competition binding assay at hA2B AR. The settings on record: 10 μM compound; [3H]DPCPX; HEK-293 cells; read-out: Percentage Inhibition (%) at 10 μM, hA2B AR. How it is done:
as §1
hA2B AR competition binding experiments were carried out in a multiscreen GF/C 96-well plate. In each well was incubated 25 µg of membranes from Euroscreen HEK-A2B cell line and prepared in laboratory, 25 nM [^3H]-DPCPX (140 Ci/mmol, 1 mCi/mL, Perkin Elmer NET974001MC) and compounds studied according to standard protocol. Non-specific binding was determined in the presence of NECA 1000 µM (Sigma E2397). The reaction mixture (Vt: 250 µL/well) was incubated at 25°C for 30 min, 200 µL was transferred to GF/C 96-well plate (Millipore, Madrid, Spain), and pretreated with binding buffer (Tris-HCl 50 Mm, EDTA 1 mM, MgCl2 5 mM, Bacitracin […], adenosine deaminase 2 U/Ml, pH = 6.5). It was then filtered and washed four times with 250 μL wash buffer (Tris-HCl 50 mM, EDTA 1 mM, MgCl2 5 mM, pH = 6.5), before being measured in a microplate beta scintillation counter (MicrobetaTrilux, PerkinElmer, Madrid, Spain).

Assay [5] concerns the target T2, hA1 AR. In words: Radioligand competition binding assay at hA1 AR. Conditions: 10 μM compound, [3H]DPCPX, CHO cells. As to the method:
as §1, §2
On the technique in general: Displacement assays read how much labelled ligand stays bound in the presence of the test substance.

In assay [6] the target is T3, hA2A AR. The assay is described as follows: Radioligand competition binding assay at hA2A AR. The settings on record: 10 μM compound; [3H]ZM241385; Hela cells; read-out: Percentage Inhibition (%) at 10 μM, hA2A AR. How it is done: as §1, §2

Values joined by “and” are separate entries in the source; they are usually repeats but may differ in a detail not shown here. Equal entries are not always repeated.

For the compound `CN1CCN(c2nc(-c3cccc(O)c3)nc3[nH]cnc23)CC1` [Compound 1], the Ki on hA3 AR [1] was 6.3 nM; at hA1 AR [2], 6.8 nM.
As for `Cc1ccsc1/C=C/c1nc(N)nc(-c2ccccc2O)n1` [Compound 3], the “Selectivity hA1/hA2AAR” value at hA2A AR [3] was 9.5. Also, the Ki at hA1 AR [2] is 32.9 nM.
As for `COc1cc(Cl)ccc1Nc1nc(N)nc(-c2oc3ccccc3c2C)n1` [Compound 4], at hA2A AR [3], the “Selectivity hA1/hA2AAR” value was 2.94 and the Ki is 490 nM. Besides, the Ki on hA1 AR [2] is 1440 nM.
For the compound `Nc1nc(NCCc2ccc(O)cc2)nc(Nc2nnc(-c3ccc(Cl)cc3)s2)n1` [Compound 5], on hA2A AR [3], the “Selectivity hA1/hA2AAR” value was 11.66 and the Ki is 44.6 nM. Besides, the Ki at hA1 AR [2] was 520 nM.
Regarding `Nc1nc(NCCc2ccc(O)cc2)nc(Nc2nc(-c3ccc(F)cc3)cs2)n1` [Compound 6], the “Selectivity hA1/hA2AAR” value on hA2A AR [3] is 319 and 318.9. In addition, on hA1 AR [2], the Ki is 478 nM.
For the compound `COc1ccc(Nc2nc(N)nc(-c3ccc(F)c([N+](=O)[O-])c3)n2)cc1F` [Compound 11i, 6-(4-fluoro-3-nitrophenyl)-N^2-(3-fluoro-4-methoxyphenyl)-1,3,5-triazine-2,4-diamine], the inhibition at 10 µM on hA3 AR [4] was 83 ± 1%; on hA2B AR it was 72 ± 6%; on hA1 AR [5] (read-out: Percentage Inhibition (%) at 10 μM, hA1 AR) it was 53 ± 1%; at hA2A AR [6] it was 57 ± 2%. For the same compound, the “Percentage Inhibition (%) at 10 μM, hA1 AR” value at hA1 AR [5] is “inactive”.
